Source: patent publication US12281149B2, “Modulators of G-protein coupled receptors” (priority 2021, dated 2025)
Where two headings read alike, the source gives them in different places. *1 amine or outer side, *2 acyl side, *3 side chain or, on linkers, in order; H or OH if unused. Where a SMILES comes first, the peptide text is derived from it. Side-chain parts run from the residue outwards. [ ]: non-standard residue; d: D form. The star is where a group is joined. Isobutyryl(2-(3-CN-5-F-Ph)) = CC(C)(C(=O)*)c1cc(F)cc(C#N)c1; C20 diacid = O=C(O)CCCCCCCCCCCCCCCCCCC(=O)*; γGlu = O=C(O)[C@H](CCC(=O)[*:2])N[*:1]; NH(3-MeOPh) = COc1cccc(N*)c1; NH(2-ClPh) = Clc1ccccc1N*; X10 = Clc1cccc(N*)c1Cl; AEEA = NCCOCCOCC(=O)O; Aib = CC(C)(N)C(=O)O; CO = O=C([*:1])[*:2]; X12 = Fc1cccc(N*)c1; GABA = NCCCC(=O)O; βAla = NCCC(=O)O

Experiments:
Type in all cases: cell-based
GLP-1 receptor [1] = target: T1, GLP-1 receptor (Homo sapiens, UniProt P43220); test: HitHunter cAMP assay, GLP-1 receptor; conditions: for EC50: CHO cells stably expressing human GLP-1 receptor, cAMP accumulation, 30 min, read-out: EC50 GLP-1R; for Emax: read-out: Emax GLP-1R
T1 sequence (P43220 24-463): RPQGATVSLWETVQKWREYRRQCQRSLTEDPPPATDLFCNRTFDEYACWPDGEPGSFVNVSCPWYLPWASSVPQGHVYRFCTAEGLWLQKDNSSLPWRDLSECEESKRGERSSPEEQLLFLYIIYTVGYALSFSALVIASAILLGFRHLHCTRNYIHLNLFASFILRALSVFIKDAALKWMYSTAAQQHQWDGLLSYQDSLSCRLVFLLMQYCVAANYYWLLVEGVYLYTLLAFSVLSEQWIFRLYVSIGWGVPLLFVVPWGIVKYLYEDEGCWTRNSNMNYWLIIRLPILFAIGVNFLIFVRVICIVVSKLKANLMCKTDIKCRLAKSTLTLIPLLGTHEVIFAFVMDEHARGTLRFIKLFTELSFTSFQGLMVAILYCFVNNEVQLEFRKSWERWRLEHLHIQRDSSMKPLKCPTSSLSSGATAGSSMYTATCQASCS

GIP receptor [2] = target: T2, GIP receptor (Homo sapiens, UniProt P48546); test: PathHunter β-arrestin assay, GIP receptor; design: host or cells: PathHunter CHO-K1 GIPR β-Arrestin Cell Line; conditions: β-arrestin-2 recruitment, PathHunter CHO-K1 GIPR β-Arrestin Cell Line, 90 min at 37° C.; normalized to GIP; read-out: GIPR β Arrestin EC50
T2 sequence (P48546 22-466): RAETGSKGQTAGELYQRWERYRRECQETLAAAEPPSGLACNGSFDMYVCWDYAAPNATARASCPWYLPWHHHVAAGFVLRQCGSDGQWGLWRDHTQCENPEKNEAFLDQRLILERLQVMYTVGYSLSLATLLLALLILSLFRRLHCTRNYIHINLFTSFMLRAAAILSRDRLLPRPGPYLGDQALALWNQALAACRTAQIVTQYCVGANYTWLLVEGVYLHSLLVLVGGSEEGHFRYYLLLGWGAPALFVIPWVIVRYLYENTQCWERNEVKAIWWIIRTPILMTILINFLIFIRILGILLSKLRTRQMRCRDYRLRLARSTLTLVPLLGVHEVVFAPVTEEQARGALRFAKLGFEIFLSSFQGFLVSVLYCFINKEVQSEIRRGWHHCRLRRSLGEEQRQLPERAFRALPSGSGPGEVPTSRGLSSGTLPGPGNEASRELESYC

GIP receptor [3] = target: T2, GIP receptor; test: HitHunter cAMP assay, GIP receptor; conditions: for EC50: CHO cells stably expressing GIP receptor, cAMP accumulation, 30 min, read-out: EC50 GIP-1R; for Emax: read-out: Emax GIP-1R
GLP-1 receptor [4] = target: T1, GLP-1 receptor; test: PathHunter β-arrestin assay, GLP-1 receptor; design: host or cells: PathHunter CHO-K1 GLP1R β-Arrestin Cell Line; conditions: β-arrestin-2 recruitment, PathHunter CHO-K1 GLP1R β-Arrestin Cell Line, 90 min at 37° C.; normalized to GLP-1; read-out: GLP-1R β Arrestin EC50
[5] = CHO cells, cAMP, normalized to maximum signal from GLP-1 (high) and DMSO (low)
[6] = CHO cells, cAMP, normalized to maximum signal from GIP (high) and DMSO (low)

Compound	EC50 (GLP-1 receptor [1])	Emax (GLP-1 receptor [1]; [5])	EC50 (GIP receptor [2])	EC50 (GIP receptor [3])	Emax (GIP receptor [3]; [6])	EC50 (GLP-1 receptor [4])	Emax (GLP-1 receptor [1]; CHO)	Emax (GIP receptor [3]; CHO)
CC[C@H](C)[C@H](NC(=O)[C@H](CO)NC(=O)[C@H](Cc1ccc(O)cc1)NC(=O)[C@H](CC(=O)O)NC(=O)[C@H](CO)NC(=O)[C@@H](NC(=O)[C@H](Cc1ccccc1)NC(=O)[C@@H](NC(=O)CNC(=O)[C@H](CCC(=O)O)NC(=O)CCNC(=O)[C@]1(c2ccccc2)CNC(=O)C1)[C@@H](C)O)[C@@H](C)O)C(=O)N[C@@H](Cc1ccc(O)cc1)C(=O)N[C@@H](CC(C)C)C(=O)N[C@@H](CC(=O)O)C(=O)N[C@@H](CCCCN)C(=O)N[C@@H](CCC(N)=O)C(=O)N[C@@H](C)C(=O)N[C@@H](C)C(=O)NC(C)(C)C(=O)N[C@@H](CCC(=O)O)C(=O)N[C@@H](Cc1ccccc1)C(=O)N[C@H](C(=O)N[C@@H](CCCCNC(=O)COCCOCCNC(=O)COCCOCCNC(=O)CC[C@H](NC(=O)CCCCCCCCCCCCCCCCCCC(=O)O)C(=O)O)C(=O)N[C@@H](Cc1c[nH]c2ccccc12)C(=O)N[C@@H](CC(C)C)C(=O)N[C@@H](CC(C)C)C(=O)N[C@@H](C)C(=O)NCC(=O)NCC(=O)N1CCC[C@H]1C(=O)N[C@@H](CO)C(=O)N[C@@H](CO)C(=O)NCC(=O)N[C@@H](C)C(=O)N1CCC[C@H]1C(=O)N1CCC[C@H]1C(=O)N1CCC[C@H]1C(=O)N[C@@H](CO)C(N)=O)C(C)C (single isomer, unassigned) [Compound 102]	0.1 to 1 nM	91%	> 1000 nM	1 to 10 nM	101%	> 1000 nM	–	–
CC[C@H](C)[C@H](NC(=O)[C@H](CC(C)C)NC(=O)[C@H](Cc1c[nH]c2ccccc12)NC(=O)[C@H](CCC(N)=O)NC(=O)[C@@H](NC(=O)[C@H](Cc1ccccc1)NC(=O)[C@H](C)NC(=O)[C@H](CCCCNC(=O)COCCOCCNC(=O)COCCOCCNC(=O)CC[C@H](NC(=O)CCCCCCCCCCCCCCCCCCC(=O)O)C(=O)O)NC(=O)[C@H](CCC(N)=O)NC(=O)[C@H](C)NC(=O)[C@@H](NC(=O)[C@H](CCCNC(=N)N)NC(=O)[C@H](CC(=O)O)NC(=O)[C@H](CC(C)C)NC(=O)C(C)(C)NC(=O)[C@@H](NC(=O)[C@H](CO)NC(=O)[C@H](Cc1ccc(O)cc1)NC(=O)[C@H](CC(=O)O)NC(=O)[C@H](CO)NC(=O)[C@@H](NC(=O)[C@H](Cc1ccccc1)NC(=O)[C@@H](NC(=O)CNC(=O)[C@H](CCC(=O)O)NC(=O)CCNC(=O)C(C)(C)c1cc(F)cc(C#N)c1)[C@@H](C)O)[C@@H](C)O)[C@@H](C)CC)[C@@H](C)CC)C(C)C)C(=O)N[C@@H](C)C(=O)NCC(=O)NCC(=O)N1CCC[C@H]1C(=O)N[C@@H](CO)C(=O)N[C@@H](CO)C(=O)NCC(=O)N[C@@H](C)C(=O)N1CCC[C@H]1C(=O)N1CCC[C@H]1C(=O)N1CCC[C@H]1C(=O)N[C@@H](CO)C(N)=O [Compound 242] ({Isobutyryl(2-(3-CN-5-F-Ph))-βAla}-EGTFTSDYSI[Aib]LDRIAQK([AEEA-AEEA-γGlu-C20 diacid])AFVQWLIAGGPSSGAPPPS-NH2)	0.1 to 1 nM	99%	–	10 to 100 nM	115%	> 1000 nM	–	–
CC[C@H](C)[C@H](NC(=O)[C@H](CC(C)C)NC(=O)[C@H](Cc1c[nH]c2ccccc12)NC(=O)[C@H](CCC(N)=O)NC(=O)[C@@H](NC(=O)[C@H](Cc1ccccc1)NC(=O)[C@H](C)NC(=O)[C@H](CCCCNC(=O)COCCOCCNC(=O)COCCOCCNC(=O)CC[C@H](NC(=O)CCCCCCCCCCCCCCCCCCC(=O)O)C(=O)O)NC(=O)[C@H](CCC(N)=O)NC(=O)[C@H](C)NC(=O)[C@@H](NC(=O)[C@H](CCCCN)NC(=O)[C@H](CC(=O)O)NC(=O)[C@H](CC(C)C)NC(=O)C(C)(C)NC(=O)[C@@H](NC(=O)[C@H](CO)NC(=O)[C@H](Cc1ccc(O)cc1)NC(=O)[C@H](CC(=O)O)NC(=O)[C@H](CO)NC(=O)[C@@H](NC(=O)[C@H](Cc1ccccc1)NC(=O)[C@@H](NC(=O)CNC(=O)[C@H](CCC(=O)O)NC(=O)CCCNC(=O)CNC(=O)Nc1ccccc1Cl)[C@@H](C)O)[C@@H](C)O)[C@@H](C)CC)[C@@H](C)CC)C(C)C)C(=O)N[C@@H](C)C(=O)NCC(=O)NCC(=O)N1CCC[C@H]1C(=O)N[C@@H](CO)C(=O)N[C@@H](CO)C(=O)NCC(=O)N[C@@H](C)C(=O)N1CCC[C@H]1C(=O)N1CCC[C@H]1C(=O)N1CCC[C@H]1C(=O)N[C@@H](CO)C(N)=O [Compound 259] ({NH(2-ClPh)-CO}-G[GABA]EGTFTSDYSI[Aib]LDKIAQK([AEEA-AEEA-γGlu-C20 diacid])AFVQWLIAGGPSSGAPPPS-NH2; C-terminus assumed)	–	–	–	–	–	–	103%	103%
CC[C@H](C)[C@H](NC(=O)[C@H](CC(C)C)NC(=O)[C@H](Cc1c[nH]c2ccccc12)NC(=O)[C@H](CCC(N)=O)NC(=O)[C@@H](NC(=O)[C@H](Cc1ccccc1)NC(=O)[C@H](C)NC(=O)[C@H](CCCCNC(=O)COCCOCCNC(=O)COCCOCCNC(=O)CC[C@H](NC(=O)CCCCCCCCCCCCCCCCCCC(=O)O)C(=O)O)NC(=O)[C@H](CCC(N)=O)NC(=O)[C@H](C)NC(=O)[C@@H](NC(=O)[C@H](CCCCN)NC(=O)[C@H](CC(=O)O)NC(=O)[C@H](CC(C)C)NC(=O)C(C)(C)NC(=O)[C@@H](NC(=O)[C@H](CO)NC(=O)[C@H](Cc1ccc(O)cc1)NC(=O)[C@H](CC(=O)O)NC(=O)[C@H](CO)NC(=O)[C@@H](NC(=O)[C@H](Cc1ccccc1)NC(=O)[C@@H](NC(=O)CNC(=O)[C@H](CCC(=O)O)NC(=O)CCCNC(=O)CNC(=O)Nc1cccc(F)c1)[C@@H](C)O)[C@@H](C)O)[C@@H](C)CC)[C@@H](C)CC)C(C)C)C(=O)N[C@@H](C)C(=O)NCC(=O)NCC(=O)N1CCC[C@H]1C(=O)N[C@@H](CO)C(=O)N[C@@H](CO)C(=O)NCC(=O)N[C@@H](C)C(=O)N1CCC[C@H]1C(=O)N1CCC[C@H]1C(=O)N1CCC[C@H]1C(=O)N[C@@H](CO)C(N)=O [Compound 260] ({X12-CO}-G[GABA]EGTFTSDYSI[Aib]LDKIAQK([AEEA-AEEA-γGlu-C20 diacid])AFVQWLIAGGPSSGAPPPS-NH2; C-terminus assumed)	–	124%	–	–	107%	–	–	–
CC[C@H](C)[C@H](NC(=O)[C@H](CC(C)C)NC(=O)[C@H](Cc1c[nH]c2ccccc12)NC(=O)[C@H](CCC(N)=O)NC(=O)[C@@H](NC(=O)[C@H](Cc1ccccc1)NC(=O)[C@H](C)NC(=O)[C@H](CCCCNC(=O)COCCOCCNC(=O)COCCOCCNC(=O)CC[C@H](NC(=O)CCCCCCCCCCCCCCCCCCC(=O)O)C(=O)O)NC(=O)[C@H](CCC(N)=O)NC(=O)[C@H](C)NC(=O)[C@@H](NC(=O)[C@H](CCCCN)NC(=O)[C@H](CC(=O)O)NC(=O)[C@H](CC(C)C)NC(=O)C(C)(C)NC(=O)[C@@H](NC(=O)[C@H](CO)NC(=O)[C@H](Cc1ccc(O)cc1)NC(=O)[C@H](CC(=O)O)NC(=O)[C@H](CO)NC(=O)[C@@H](NC(=O)[C@H](Cc1ccccc1)NC(=O)[C@@H](NC(=O)CNC(=O)[C@H](CCC(=O)O)NC(=O)CCCNC(=O)CNC(=O)Nc1cccc(OC)c1)[C@@H](C)O)[C@@H](C)O)[C@@H](C)CC)[C@@H](C)CC)C(C)C)C(=O)N[C@@H](C)C(=O)NCC(=O)NCC(=O)N1CCC[C@H]1C(=O)N[C@@H](CO)C(=O)N[C@@H](CO)C(=O)NCC(=O)N[C@@H](C)C(=O)N1CCC[C@H]1C(=O)N1CCC[C@H]1C(=O)N1CCC[C@H]1C(=O)N[C@@H](CO)C(N)=O [Compound 261] ({NH(3-MeOPh)-CO}-G[GABA]EGTFTSDYSI[Aib]LDKIAQK([AEEA-AEEA-γGlu-C20 diacid])AFVQWLIAGGPSSGAPPPS-NH2; C-terminus assumed)	–	106%	–	–	107%	–	–	–
CC[C@H](C)[C@H](NC(=O)[C@H](CC(C)C)NC(=O)[C@H](Cc1c[nH]c2ccccc12)NC(=O)[C@H](CCC(N)=O)NC(=O)[C@@H](NC(=O)[C@H](Cc1ccccc1)NC(=O)[C@H](C)NC(=O)[C@H](CCCCNC(=O)COCCOCCNC(=O)COCCOCCNC(=O)CC[C@H](NC(=O)CCCCCCCCCCCCCCCCCCC(=O)O)C(=O)O)NC(=O)[C@H](CCC(N)=O)NC(=O)[C@H](C)NC(=O)[C@@H](NC(=O)[C@H](CCCCN)NC(=O)[C@H](CC(=O)O)NC(=O)[C@H](CC(C)C)NC(=O)C(C)(C)NC(=O)[C@@H](NC(=O)[C@H](CO)NC(=O)[C@H](Cc1ccc(O)cc1)NC(=O)[C@H](CC(=O)O)NC(=O)[C@H](CO)NC(=O)[C@@H](NC(=O)[C@H](Cc1ccccc1)NC(=O)[C@@H](NC(=O)CNC(=O)[C@H](CCC(=O)O)NC(=O)CCCNC(=O)CNC(=O)Nc1cccc(Cl)c1Cl)[C@@H](C)O)[C@@H](C)O)[C@@H](C)CC)[C@@H](C)CC)C(C)C)C(=O)N[C@@H](C)C(=O)NCC(=O)NCC(=O)N1CCC[C@H]1C(=O)N[C@@H](CO)C(=O)N[C@@H](CO)C(=O)NCC(=O)N[C@@H](C)C(=O)N1CCC[C@H]1C(=O)N1CCC[C@H]1C(=O)N1CCC[C@H]1C(=O)N[C@@H](CO)C(N)=O [Compound 262] ({X10-CO}-G[GABA]EGTFTSDYSI[Aib]LDKIAQK([AEEA-AEEA-γGlu-C20 diacid])AFVQWLIAGGPSSGAPPPS-NH2; C-terminus assumed)	–	–	–	–	–	–	90%	106%
